According to ChEMBL document CHEMBL4312004, “From bench to counter: Discovery and validation of a peony extract as tyrosinase inhibiting cosmeceutical” (Eur J Med Chem, 2019):
Activity calls are given as the source filed them. The calls are words filed in the database; no cut-off is given here.

How the values were obtained:
B16-F10 [1] = assay: Antimelanogenic activity against C57BL/6 mouse B16F10 cells incubated for 10 to 50 uM incubated for 24 hrs; assay type: functional
B16-F10 [2] = assay: Antimelanogenic activity against C57BL/6 mouse B16F10 cells at 10 uM incubated for 72 hrs relative to control; assay type: functional
B16-F10 [3] = assay: Antimelanogenic activity against C57BL/6 mouse B16F10 cells at 50 uM incubated for 72 hrs relative to control; assay type: functional
B16-F10 [4] = assay: Cytotoxicity against C57BL/6 mouse B16F10 cells assessed as reduction in cell viability incubated for 72 hrs by SRB assay relative to control; assay type: cell-based; details: b16-f10, 72 h
[5] = Drug degradation in IMDM cell medium incubated for 24 hrs by HPLC analysis; assay type: physicochemical; details: read-out: Drug degradation
[6] = Stability of compound in DMSO at 10 mM incubated for 24 hrs by HPLC analysis; assay type: physicochemical; details: 10000 µM
[7] = Stability of compound in IMDM cell medium incubated for 24 hrs by HPLC analysis; assay type: physicochemical
B16-F10 [8] = assay: Antimelanogenic activity against C57BL/6 mouse B16F10 cells incubated for 72 hrs; assay type: functional, cell-based
[9] = molecular target: T1, Tyrosinase (Agaricus bisporus) (UniProt O42713); assay: Ratio of IC50 for arbutin to IC50 for test compound for inhibition of mushroom tyrosinase
T1 sequence (whole entry): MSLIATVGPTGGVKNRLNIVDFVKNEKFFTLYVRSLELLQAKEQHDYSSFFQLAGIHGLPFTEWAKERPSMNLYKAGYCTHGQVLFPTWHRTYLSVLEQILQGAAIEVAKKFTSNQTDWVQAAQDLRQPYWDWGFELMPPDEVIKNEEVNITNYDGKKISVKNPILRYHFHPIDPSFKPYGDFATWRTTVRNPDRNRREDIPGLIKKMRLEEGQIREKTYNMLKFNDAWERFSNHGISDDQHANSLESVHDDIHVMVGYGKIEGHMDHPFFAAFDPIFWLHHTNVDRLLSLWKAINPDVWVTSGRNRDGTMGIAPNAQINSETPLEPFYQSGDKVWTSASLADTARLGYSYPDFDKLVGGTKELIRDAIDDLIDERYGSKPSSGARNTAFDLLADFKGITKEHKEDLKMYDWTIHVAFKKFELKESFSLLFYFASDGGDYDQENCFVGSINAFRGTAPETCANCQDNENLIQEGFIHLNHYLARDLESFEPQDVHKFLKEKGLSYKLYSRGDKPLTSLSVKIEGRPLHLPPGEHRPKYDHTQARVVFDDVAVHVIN

Tyrosinase = molecular target: T2, Tyrosinase (Agaricus bisporus, UniProt O42713); assay: Inhibition of mushroom tyrosinase using L-dopa as substrate preincubated for 10 mins followed by substrate addition and measured for 5 mins by photometric analysis
T2 sequence (O42713 whole entry): T1 sequence (whole entry)

B16-F10 [10] = assay: Cytotoxicity against C57BL/6 mouse B16F10 cells assessed as increase in membrane blebbing at 50 uM incubated for 48 hrs by microscopic method; assay type: cell-based; details: b16-f10, 48 h
B16-F10 [11] = assay: Cytotoxicity against C57BL/6 mouse B16F10 cells assessed as increase in cell shrinking at 50 uM incubated for 48 hrs by microscopic method; assay type: cell-based; details: b16-f10, 48 h

Row | Compound | Activity (B16-F10 [1]) | Activity (B16-F10 [2]) [%] | Activity (B16-F10 [3]) [%] | Activity (B16-F10 [4]) | degraded at 24 h [5] [%] | Stability [6] | Stability [7] | Activity (B16-F10 [8]) | Ratio IC50 [9] | IC50 (Tyrosinase) [µM] | Activity (B16-F10 [10]) | Activity (B16-F10 [11])
1 | OC[C@H]1O[C@@H](Oc2ccc(O)cc2)[C@H](O)[C@@H](O)[C@@H]1O | inactive |  |  |  |  |  |  |  |  |  |  | 
2 | OC[C@H]1O[C@@H](Oc2ccc(/C=C/c3cc(O)cc(O)c3)cc2)[C@H](O)[C@@H](O)[C@@H]1O [GOB C] | 25% | 50 | 65 | Non-Toxic | 30 | Stable | Unstable | Dose-dependent effect | 73 | 19 |  | 
3 | OC[C@H]1O[C@@H](Oc2cc(O)cc(/C=C/c3ccc(O)cc3)c2)[C@H](O)[C@@H](O)[C@@H]1O [PICEID] | inactive |  |  |  |  | Stable | Stable |  |  |  |  | 
4 | Oc1ccc(/C=C/c2cc(O)cc(O)c2)cc1 [RESVERATROL] | 25% | 50 | 65 | 70% |  | Stable | Stable | Dose-dependent effect |  |  | Toxic | Toxic
